Laboratory results: patent US20230085307A1, “PYRIDAZINONE COMPOUND AND HERBICIDE” (NISSAN CHEMICAL CORPORATION, priority 2019, published 2023)

Key:
false cleavers = test: Test Example 5: herbicidal effect by foliage application, plastic box (Table 20, symbol Q); type: in vivo, false cleavers (Galium spurium); settings: foliage application, three weeks after application
In short: (§1)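 Plants sown in sterilized diluvial soil and grown 14 days in a greenhouse at 25° C to 30° C, then sprayed on the foliage with the compound's emulsion diluted in water to a predetermined herbicide amount. Injury to weeds and crops scored three weeks after application on a visual rating scale.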

transplanted rice = test: Test Example 1: effect on crop, application before weed generation under submerged conditions (Table 16, symbol a); type: in vivo; settings: amount of applied herbicide 320 g/ha
In short: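 Submerged Wagner pots (alluvial soil, 4 cm water) sown with weed seeds and planted with 2.5-leaf rice seedlings; emulsifiable concentrate diluted in water applied to water surface on sowing day. Held in greenhouse at 25-30 °C; injury scored 0-5 by herbicidal rate after three weeks.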

directly sowed rice = test: Test Example 3: effect on crop by foliage application, Wagner pot (Table 18, symbol b); type: in vivo; settings: amount of applied herbicide 320 g/ha
In short: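 Plants were sown in alluvial soil held under 0.1–0.5 cm standing water and grown 14 days in a greenhouse at 25–30 °C. An emulsifiable formulation, water-diluted to the set dose, was then sprayed onto the foliage, and effects were scored three weeks later using previously defined criteria.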

corn [1] = test: Test Example 4: effect on crop by soil treatment (Table 19, symbol c); type: in vivo; settings: amount of applied herbicide 320 g/ha
In short: (§2)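 Three weeks of greenhouse growth at 25° C. to 30° C. followed a uniform surface spray of water-diluted emulsion at a predetermined herbicide amount. Seeds had been sown beforehand under about 1.5 cm of sterilized diluvial soil. Grading followed criteria set out in an earlier test.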

soybean [2] = test: Test Example 4: effect on crop by soil treatment (Table 19, symbol d); type: in vivo; settings: amount of applied herbicide 320 g/ha
In short: as §2

wheat [3] = test: Test Example 4: effect on crop by soil treatment (Table 19, symbol e); type: in vivo; settings: amount of applied herbicide 320 g/ha
In short: as §2

beet [4] = test: Test Example 4: effect on crop by soil treatment (Table 19, symbol f); type: in vivo; settings: amount of applied herbicide 320 g/ha
In short: as §2

rapeseed [5] = test: Test Example 4: effect on crop by soil treatment (Table 19, symbol g); type: in vivo; settings: amount of applied herbicide 320 g/ha
In short: as §2

corn [6] = test: Test Example 5: effect on crop by foliage application, plastic box (Table 20, symbol c); type: in vivo; settings: 320 g/ha, three weeks after application
In short: as §1

soybean [7] = test: Test Example 5: effect on crop by foliage application, plastic box (Table 20, symbol d); type: in vivo; settings: 320 g/ha, three weeks after application
In short: as §1

wheat [8] = test: Test Example 5: effect on crop by foliage application, plastic box (Table 20, symbol e); type: in vivo; settings: 320 g/ha, three weeks after application
In short: as §1

beet [9] = test: Test Example 5: effect on crop by foliage application, plastic box (Table 20, symbol f); type: in vivo; settings: 320 g/ha, three weeks after application
In short: as §1

rapeseed [10] = test: Test Example 5: effect on crop by foliage application, plastic box (Table 20, symbol g); type: in vivo; settings: 320 g/ha, three weeks after application
In short: as §1

SMILES | Q: false cleavers, herbicidal effect grade (false cleavers; 320 g/ha) | also measured
CCCC(=O)Oc1c(C)nn(C)c(=O)c1-c1c(-c2ccc(F)cc2)sc2cc(F)ccc12 [3-002] | 5 (Herbicidal rate of 90% or more (almost completely withered)) | –
COc1ccccc1-c1sc2cc(F)ccc2c1-c1c(O)c(C)nn(C)c1=O [3-003] | 5 (Herbicidal rate of 90% or more (almost completely withered)) | –
CCOc1ccccc1-c1sc2cc(F)ccc2c1-c1c(O)c(C)nn(C)c1=O [3-006] | 5 (Herbicidal rate of 90% or more (almost completely withered)) | –
CCCC(=O)Oc1c(C)nn(C)c(=O)c1-c1c(-c2ccc(OC)cc2)sc2cc(F)ccc12 [3-008] | 4 (Herbicidal rate of 70% or more and less than 90%) | –
COc1cc(F)ccc1-c1sc2cc(F)ccc2c1-c1c(O)c(C)nn(C)c1=O [3-009] | 5 (Herbicidal rate of 90% or more (almost completely withered)) | –
CCCC(=O)Oc1c(C)nn(C)c(=O)c1-c1c(-c2ccc(F)cc2OC)sc2cc(F)ccc12 [3-010] | 5 (Herbicidal rate of 90% or more (almost completely withered)) | –
CCOc1cc(F)ccc1-c1sc2cc(F)ccc2c1-c1c(O)c(C)nn(C)c1=O [3-011] | 5 (Herbicidal rate of 90% or more (almost completely withered)) | –
CCCC(=O)Oc1c(C)nn(C)c(=O)c1-c1c(-c2ccc(F)cc2OCC)sc2cc(F)ccc12 [3-012] | 5 (Herbicidal rate of 90% or more (almost completely withered)) | –
Cc1nn(C)c(=O)c(-c2c(-c3ccc4c(c3)OCCO4)sc3cc(F)ccc23)c1O [3-013] | 5 (Herbicidal rate of 90% or more (almost completely withered)) | –
CCCC(=O)Oc1c(C)nn(C)c(=O)c1-c1c(-c2ccc3c(c2)OCCO3)sc2cc(F)ccc12 [3-014] | 4 (Herbicidal rate of 70% or more and less than 90%) | –
CCCC(=O)Oc1c(C)nn(C)c(=O)c1-c1c(-c2ccc(OC(C)C)cc2)sc2cc(F)ccc12 [3-020] | 4 (Herbicidal rate of 70% or more and less than 90%) | –
CCOc1ccccc1-c1sc2cc(C)ccc2c1-c1c(O)c(C)nn(C)c1=O [3-053] | 5 (Herbicidal rate of 90% or more (almost completely withered)) | –
CCOc1cc(F)ccc1-c1sc2cc(C)ccc2c1-c1c(O)c(C)nn(C)c1=O [3-057] | 5 (Herbicidal rate of 90% or more (almost completely withered)) | –
CCCC(=O)Oc1c(C)nn(C)c(=O)c1-c1c(-c2ccc(F)cc2OCC)sc2cc(C)ccc12 [3-058] | 5 (Herbicidal rate of 90% or more (almost completely withered)) | –
CCCC(=O)Oc1c(C)nn(C)c(=O)c1-c1c(-c2ccccc2)sc2cc(OC)ccc12 [3-062] | 4 (Herbicidal rate of 70% or more and less than 90%) | –
CCCC(=O)Oc1c(C)nn(C)c(=O)c1-c1c(-c2ccc(OC)cc2)sc2cc(OC)ccc12 [3-069] | 4 (Herbicidal rate of 70% or more and less than 90%) | –
CCOc1ccc(-c2sc3cc(OC)ccc3c2-c2c(O)c(C)nn(C)c2=O)cc1 [3-072] | 5 (Herbicidal rate of 90% or more (almost completely withered)) | –
COc1ccc2c(-c3c(O)c(C)nn(C)c3=O)c(-c3ccc(F)cc3OC)sc2c1 [3-076] | 4 (Herbicidal rate of 70% or more and less than 90%) | –
CCCC(=O)Oc1c(C)nn(C)c(=O)c1-c1c(-c2ccc(F)cc2OC)sc2cc(OC)ccc12 [3-077] | 3 (Herbicidal rate of 40% or more and less than 70%) | –
CCOc1ccccc1-c1sc2cc(OC)ccc2c1-c1c(O)c(C)nn(CC)c1=O [3-085] | 4 (Herbicidal rate of 70% or more and less than 90%) | –
CCCC(=O)Oc1c(C)nn(C)c(=O)c1-c1c(-c2ccccc2OC)sc2cc(OCC)ccc12 [3-090] | – | Q: false cleavers, herbicidal effect grade (false cleavers; 310 g/ha): 5 (Herbicidal rate of 90% or more (almost completely withered))
CCOc1ccc2c(-c3c(O)c(C)nn(C)c3=O)c(-c3ccc(OC)cc3)sc2c1 [3-091] | 5 (Herbicidal rate of 90% or more (almost completely withered)) | –
CCCC(=O)Oc1c(C)nn(C)c(=O)c1-c1c(-c2ccc(OC)cc2)sc2cc(OCC)ccc12 [3-092] | 4 (Herbicidal rate of 70% or more and less than 90%) | –
CCOc1ccc2c(-c3c(O)c(C)nn(C)c3=O)c(-c3ccc(F)cc3OCC)sc2c1 [3-095] | 5 (Herbicidal rate of 90% or more (almost completely withered)) | –
COc1ccccc1-c1sc2cc(OC3CCCC3)ccc2c1-c1c(O)c(C)nn(C)c1=O [3-109] | 1 (Herbicidal rate of 5% or more and less than 20%) | –
Cc1nn(C)c(=O)c(-c2c(-c3ccc4c(c3)OCCO4)oc3ccccc23)c1O [8-002] | – | herbicidal effect on false cleavers (Q) (false cleavers; 320 g/ha): 0 (Herbicidal rate of 5% or less (almost no effect))
Cc1ccc2oc(-c3ccc4c(c3)OCCO4)c(-c3c(O)c(C)nn(C)c3=O)c2c1 [9-012] | – | herbicidal effect on false cleavers (Q) (false cleavers; 320 g/ha): 3 (Herbicidal rate of 40% or more and less than 70%)
CCCC(=O)Oc1c(C)nn(C)c(=O)c1-c1c(-c2ccc3c(c2)OCCO3)oc2ccc(C)cc12 [9-013] | – | herbicidal effect on false cleavers (Q) (false cleavers; 320 g/ha): 0 (Herbicidal rate of 5% or less (almost no effect))
CCCC(=O)Oc1c(C)nn(C)c(=O)c1-c1c(-c2ccccc2OC)sc2cc(OC)ccc12 [Compound No. 3-066, 5-(6-methoxy-2-(2-methoxyphenyl)benzo[b]thiophen-3-yl)-1,3-dimethyl-6-oxo-1,6-dihydropyridazin-4-yl=(n-butyrate)] | – | Q: false cleavers, herbicidal effect grade (false cleavers; 296 g/ha): 0 (Herbicidal rate of 5% or less (almost no effect))
COc1ccc(-c2oc3ccc(F)cc3c2-c2c(O)c(C)nn(C)c2=O)cc1 [Compound No. 9-020, 4-(5-fluoro-2-(4-methoxyphenyl)benzofuran-3-yl)-5-hydroxy-2,6-dimethylpyridazin-3(2H)-one] | – | Effect on crop, a: transplanted rice (transplanted rice): 0 (Herbicidal rate of 5% or less (almost no effect)); Effect on crop b (directly sowed rice), foliage application (directly sowed rice): 0 (Herbicidal rate of 5% or less (almost no effect)); c: corn, effect on crop grade (corn [1]): 0 (Herbicidal rate of 5% or less (almost no effect)); d: soybean, effect on crop grade (soybean [2]): 0 (Herbicidal rate of 5% or less (almost no effect)); e: wheat, effect on crop grade (wheat [3]): 2 (Herbicidal rate of 20% or more and less than 40%); f: beet, effect on crop grade (beet [4]): 4 (Herbicidal rate of 70% or more and less than 90%); g: rapeseed, effect on crop grade (rapeseed [5]): 5 (Herbicidal rate of 90% or more (almost completely withered)); effect on crop corn (c) (corn [6]): 0 (Herbicidal rate of 5% or less (almost no effect)); effect on crop soybean (d) (soybean [7]): 3 (Herbicidal rate of 40% or more and less than 70%); effect on crop wheat (e) (wheat [8]): 3 (Herbicidal rate of 40% or more and less than 70%); effect on crop beet (f) (beet [9]): 5 (Herbicidal rate of 90% or more (almost completely withered)); effect on crop rapeseed (g) (rapeseed [10]): 5 (Herbicidal rate of 90% or more (almost completely withered)); melting point: 248 to 250 °C
